Where a SMILES comes first, the peptide text is derived from it. [ ]: non-standard residue; d: D form. The star is where a group is joined. dPhe(4-NHCONH2) = NC(=O)Nc1ccc(C[C@@H](N)C(=O)O)cc1; Dihydroorotyl(S) = O=C1C[C@@H](C(=O)*)NC(=O)N1; dPhe(4-Cl) = N[C@H](Cc1ccc(Cl)cc1)C(=O)O; Phe(4-NH2) = Nc1ccc(C[C@H](N)C(=O)O)cc1; d2Nal = N[C@H](Cc1ccc2ccccc2c1)C(=O)O; Lys(iPr) = CC(C)NCCCC[C@H](N)C(=O)O; d3Pal = N[C@H](Cc1cccnc1)C(=O)O
Legend:
serum testosterone = experiment: Clinical trial CS18 (Phase 2, three-month dosing regimen): serum testosterone ≦0.5 ng/mL; format: in vivo, human; details: for cumulative probability of testosterone ≦0.5 ng/mL, Kaplan-Meier estimate / number of patients with testosterone > 0.5 ng/mL: Day 28 to Day 364; for cumulative probability of testosterone ≦0.5 ng/mL, Kaplan-Meier estimate / proportion of patients with testosterone ≦0.5 ng/mL: ITT
Description: The present study included a starting degarelix dose of 240 mg (with a concentration of 40 mg/mL of solvent), followed by maintenance doses of degarelix: i.e., 360 mg (with a concentration of 60 mg/mL of solvent) or 480 mg (with a concentration of 60 mg/mL of solvent), the latter administered at Months 1, 4, 7, and 10.
The study was open labeled and patients received a starting dose of 240 mg (with a concentration of 40 mg/mL of solvent) at Month 0 followed by one of two degarelix maintenance dose treatment regimens: 360 mg (with a concentration of 60 mg/mL of solvent) at Months 1, 4, 7, and 10; or 480 mg (with a concentration of 60 mg/mL of solvent) at Months 1, 4, 7, and 10.
The starting dose was administered subcutaneously as two injections of 120 mg (with a concentration of 40 mg/ml of solvent, given as 2×3 mL injections). After 28 days a maintenance dose of 360 mg (with a concentration of 60 mg/mL, given as 2×3 mL injections) or 480 mg (with a concentration of 60 mg/mL, given as 2×4 mL injections) was administered, also in two injections (each of 240 mg). Thereafter, with three monthly intervals, maintenance doses were given, again in the form of two injections. […] At each visit, serum testosterone, prostate specific androgen (PSA), and plasma concentration of degarelix were measured by techniques well known in the art.

clinical = details: human, in vivo
Excerpt: Throughout the ongoing degarelix development program, population pharmacokinetic/pharmacodynamic (PK/PD) modeling and simulations have been employed to get a better understanding of the PK and PD data, and the relationship between these and other parameters. […] Because of the variability in the population, it was considered that this median plasma concentration might not be sufficient to maintain long-term testosterone suppression in approximately 95% of the patients. It was therefore proposed that the dose administered should produce mean serum trough degarelix levels of >9 ng/ml or higher in the Phase 3 studies for the one-month dosing regimen program.

- level at 672 h (clinical): 7.34 ng/mL
- level at 2016 h (clinical): 4.54 ng/mL
SMILES: CC(=O)N[C@H](Cc1ccc2ccccc2c1)C(=O)N[C@H](Cc1ccc(Cl)cc1)C(=O)N[C@H](Cc1cccnc1)C(=O)N[C@@H](CO)C(=O)N[C@@H](Cc1ccc(NC(=O)[C@@H]2CC(=O)NC(=O)N2)cc1)C(=O)N[C@H](Cc1ccc(NC(N)=O)cc1)C(=O)N[C@@H](CC(C)C)C(=O)N[C@@H](CCCCNC(C)C)C(=O)N1CCC[C@H]1C(=O)N[C@H](C)C(N)=O [Degarelix, D-Alaninamide, N-acetyl-3-(2-naphthalenyl)-D-alanyl-4-chloro-D-phenylalanyl-3-(3-pyridinyl)-D-alanyl-L-seryl-4-[[[(4S)-hexahydro-2,6-dioxo-4-pyrimidinyl]carbonyl]amino]-L-phenylalanyl-4-[(aminocarbonyl)amino]-D-phenylalanyl-L leucyl-N6-(1-methylethyl)-L-lysyl-L-prolyl] (Ac-[d2Nal][dPhe(4-Cl)][d3Pal]S[Phe(4-NH2)](Dihydroorotyl(S))[dPhe(4-NHCONH2)]L[Lys(iPr)]P[dA]-NH2)
- cumulative probability of testosterone ≦0.5 ng/mL, Kaplan-Meier estimate (serum testosterone; 360 mg (60 mg/mL) maintenance Months 1,4,7,10 after 240 mg start): 89.0%
- cumulative probability of testosterone ≦0.5 ng/mL, Kaplan-Meier estimate (serum testosterone; 360 mg (60 mg/mL) maintenance Months 1,4,7,10 after 240 mg start, listed as degarelix): 89.0%
- patients with sustained testosterone suppression over the course of the observed time period (serum testosterone; 360 mg (60 mg/mL) maintenance dose): at least 90%
- cumulative probability of testosterone ≦0.5 ng/mL, Kaplan-Meier estimate (serum testosterone; 480 mg (60 mg/mL) maintenance Months 1,4,7,10 after 240 mg start): 93.3%
- cumulative probability of testosterone ≦0.5 ng/mL, Kaplan-Meier estimate (serum testosterone; 480 mg (60 mg/mL) maintenance Months 1,4,7,10 after 240 mg start, listed as degarelix): 93.3%
- patients with sustained testosterone suppression over the course of the observed time period (serum testosterone; 480 mg (60 mg/mL) maintenance dose): > 95%
- coverage probability (confidence of true suppression rate being greater than 90%) (serum testosterone; 360/60 mg): 39.7%
- proportion of patients with testosterone ≦0.5 ng/mL (serum testosterone; 360/60 mg, Day 28): 98.5%
- proportion of patients with testosterone ≦0.5 ng/mL (serum testosterone; 360/60 mg, Day 56): 100%
- proportion of patients with testosterone ≦0.5 ng/mL (serum testosterone; 360/60 mg, Day 84): 100%
- proportion of patients with testosterone ≦0.5 ng/mL (serum testosterone; 360/60 mg, Day 112): 96.8%
- proportion of patients with testosterone ≦0.5 ng/mL (serum testosterone; 360/60 mg, Day 140): 100%
- proportion of patients with testosterone ≦0.5 ng/mL (serum testosterone; 360/60 mg, Day 168): 98.4%
- proportion of patients with testosterone ≦0.5 ng/mL (serum testosterone; 360/60 mg, Day 196 (before re-dosing at Month 7)): 90.6%
- proportion of patients with testosterone ≦0.5 ng/mL (serum testosterone; 360/60 mg, Day 196 (before re-dosing at Month 7), listed as degarelix): 90.6%
- proportion of patients with testosterone ≦0.5 ng/mL (serum testosterone; 360/60 mg, Day 224): 98.4%
- proportion of patients with testosterone ≦0.5 ng/mL (serum testosterone; 360/60 mg, Day 252): 98.4%
- proportion of patients with testosterone ≦0.5 ng/mL (serum testosterone; 360/60 mg, Day 280 (before re-dosing at Month 10)): 93.3%
- proportion of patients with testosterone ≦0.5 ng/mL (serum testosterone; 360/60 mg, Day 280 (before re-dosing at Month 10), listed as degarelix): 93.3%
- proportion of patients with testosterone ≦0.5 ng/mL (serum testosterone; 360/60 mg, Day 308): 100%
- proportion of patients with testosterone ≦0.5 ng/mL (serum testosterone; 360/60 mg, Day 336): 96.7%
- proportion of patients with testosterone ≦0.5 ng/mL (serum testosterone; 360/60 mg, Day 364): 95.0%
- number of patients with testosterone > 0.5 ng/mL (serum testosterone; 360/60 mg, N=67): 7
- coverage probability (confidence of true suppression rate being greater than 90%) (serum testosterone; 360/60 mg, listed as degarelix): 39.7%
- coverage probability (confidence of true suppression rate being greater than 90%) (serum testosterone; 480/60 mg): 79.9%
- proportion of patients with testosterone ≦0.5 ng/mL (serum testosterone; 480/60 mg, Day 28): 98.4%
- proportion of patients with testosterone ≦0.5 ng/mL (serum testosterone; 480/60 mg, Day 56): 98.4%
- proportion of patients with testosterone ≦0.5 ng/mL (serum testosterone; 480/60 mg, Day 84): 98.4%
- proportion of patients with testosterone ≦0.5 ng/mL (serum testosterone; 480/60 mg, Day 112): 96.7%
- proportion of patients with testosterone ≦0.5 ng/mL (serum testosterone; 480/60 mg, Day 140): 98.3%
- proportion of patients with testosterone ≦0.5 ng/mL (serum testosterone; 480/60 mg, Day 168): 98.3%
- proportion of patients with testosterone ≦0.5 ng/mL (serum testosterone; 480/60 mg, Day 196): 98.3%
- proportion of patients with testosterone ≦0.5 ng/mL (serum testosterone; 480/60 mg, Day 224): 98.3%
- proportion of patients with testosterone ≦0.5 ng/mL (serum testosterone; 480/60 mg, Day 252): 100%
- proportion of patients with testosterone ≦0.5 ng/mL (serum testosterone; 480/60 mg, Day 280): 98.2%
- proportion of patients with testosterone ≦0.5 ng/mL (serum testosterone; 480/60 mg, Day 308): 100%
- proportion of patients with testosterone ≦0.5 ng/mL (serum testosterone; 480/60 mg, Day 336): 100%
- proportion of patients with testosterone ≦0.5 ng/mL (serum testosterone; 480/60 mg, Day 364): 96.3%
- number of patients with testosterone > 0.5 ng/mL (serum testosterone; 480/60 mg, N=66): 4
- coverage probability (confidence of true suppression rate being greater than 90%) (serum testosterone; 480/60 mg, listed as degarelix): 79.9%
- cumulative probability of testosterone ≦0.5 ng/mL, Kaplan-Meier estimate (serum testosterone; Total (480 mg and 360 mg arms)): 92.8%
- proportion of patients with testosterone ≦0.5 ng/mL (serum testosterone; Total (both arms, after 240 mg starting dose), Day 28): 98.4%
- proportion of patients with testosterone ≦0.5 ng/mL (serum testosterone; Total (both arms, after 240 mg starting dose), Day 28, listed as degarelix): 98%
- number of patients with testosterone > 0.5 ng/mL (serum testosterone; Total, N=133): 11

— patent US8722088B2, “Pharmaceutical compositions and methods for the treatment of prostate cancer” (Ferring International Center S.A., priority 2009, dated 2014)
